Reference: PubChem BioAssay (NCI)
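The concentration for 50% growth inhibition is given as GI50. At the TGI there is no net growth.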

Columns and labels:
Assay in all cases: NCI-60 cell line screen, 384-well format
[1] = system: 786-0 renal
[2] = system: A498 renal
[3] = system: A549 NSCLC
[4] = system: ACHN renal
[5] = system: BT-549 breast
[6] = system: CAKI-1 renal
[7] = system: CCRF-CEM leukemia
[8] = system: COLO 205 colon
[9] = system: DU-145 prostate
[10] = system: EKVX NSCLC
[11] = system: HCC-2998 colon
[12] = system: HCT-15 colon
[13] = system: HL-60(TB) leukemia
[14] = system: HOP-62 NSCLC
[15] = system: HOP-92 NSCLC
[16] = system: HS 578T breast
[17] = system: HT29 colon
[18] = system: IGROV1 ovarian
[19] = system: K-562 leukemia
[20] = system: KM12 colon
[21] = system: LOX IMVI melanoma
[22] = system: M14 melanoma
[23] = system: MALME-3M melanoma
[24] = system: MCF7 breast
[25] = system: MDA-MB-231 breast
[26] = system: MDA-MB-435 melanoma
[27] = system: MDA-MB-468 breast
[28] = system: MOLT-4 leukemia
[29] = system: NCI-H226 lung
[30] = system: NCI-H23 lung
[31] = system: NCI-H322M lung
[32] = system: NCI-H460 NSCLC
[33] = system: NCI-H522 lung
[34] = system: NCI/ADR-RES ovarian
[35] = system: OVCAR-3 ovarian
[36] = system: OVCAR-4 ovarian
[37] = system: OVCAR-5 ovarian
[38] = system: OVCAR-8 ovarian
[39] = system: PC-3 prostate
[40] = system: RPMI-8226 leukemia
[41] = system: RXF 393 renal
[42] = system: SF-268 CNS
[43] = system: SF-295 CNS
[44] = system: SF-539 CNS
[45] = system: SK-MEL-28 melanoma
[46] = system: SK-MEL-5 melanoma
[47] = system: SK-OV-3 ovarian
[48] = system: SN12C renal
[49] = system: SNB-19 CNS
[50] = system: SNB-75 CNS
[51] = system: SR leukemia
[52] = system: SW-620 colon
[53] = system: T-47D breast
[54] = system: TK-10 renal
[55] = system: UACC-257 melanoma
[56] = system: UACC-62 melanoma
[57] = system: UO-31 renal

COc1cc2c(Oc3ccc4[nH]c(C)cc4c3F)ccnc2cc1OCC1(N)CC1
GI50 [1]: 465 nM | TGI [1]: 1630 nM | GI50 [2]: 400 nM | TGI [2]: 1690 nM | GI50 [3]: 1080 nM | TGI [3]: 3150 nM | GI50 [4]: 1160 nM | TGI [4]: 3440 nM | GI50 [5]: 383 nM | TGI [5]: 1190 nM | GI50 [6]: 881 nM | TGI [6]: 2310 nM | GI50 [7]: 722 nM | TGI [7]: 1880 nM | GI50 [8]: 1300 nM | TGI [8]: 3010 nM | GI50 [9]: 2160 nM | TGI [9]: 7360 nM | GI50 [10]: 867 nM | TGI [10]: 2850 nM | GI50 [11]: 1370 nM | TGI [11]: 2850 nM | GI50 [12]: 493 nM | TGI [12]: 1760 nM | GI50 [13]: 240 nM | TGI [13]: 463 nM | GI50 [14]: 664 nM | TGI [14]: 2060 nM | GI50 [15]: 477 nM | TGI [15]: 1900 nM | GI50 [16]: 294 nM | TGI [16]: 1040 nM | GI50 [17]: 364 nM | TGI [17]: 1450 nM | GI50 [18]: 1200 nM | TGI [18]: 4350 nM | GI50 [19]: 421 nM | TGI [19]: 1390 nM | GI50 [20]: 474 nM | TGI [20]: 1740 nM | GI50 [21]: 705 nM | TGI [21]: 1990 nM | GI50 [22]: 519 nM | TGI [22]: 1660 nM | GI50 [23]: 375 nM | TGI [23]: 1460 nM | GI50 [24]: 359 nM | TGI [24]: 7730 nM | GI50 [25]: 1170 nM | TGI [25]: 3540 nM | GI50 [26]: 228 nM | TGI [26]: 497 nM | GI50 [27]: 253 nM | TGI [27]: 567 nM | GI50 [28]: 223 nM | TGI [28]: 419 nM | GI50 [29]: 1110 nM | TGI [29]: 3020 nM | GI50 [30]: 1030 nM | TGI [30]: 2520 nM | GI50 [31]: 1440 nM | TGI [31]: 3420 nM | GI50 [32]: 714 nM | TGI [32]: 2030 nM | GI50 [33]: 274 nM | TGI [33]: 672 nM | GI50 [34]: 936 nM | TGI [34]: 2210 nM | GI50 [35]: 278 nM | TGI [35]: 797 nM | GI50 [36]: 543 nM | TGI [36]: 3180 nM | GI50 [37]: 1920 nM | TGI [37]: 3870 nM | GI50 [38]: 1510 nM | TGI [38]: 3270 nM | GI50 [39]: 809 nM | TGI [39]: 2290 nM | GI50 [40]: 753 nM | TGI [40]: 1990 nM | GI50 [41]: 648 nM | TGI [41]: 2090 nM | GI50 [42]: 683 nM | TGI [42]: 2070 nM | GI50 [43]: 346 nM | TGI [43]: 1250 nM | GI50 [44]: 270 nM | TGI [44]: 1140 nM | GI50 [45]: 828 nM | TGI [45]: 2080 nM | GI50 [46]: 416 nM | TGI [46]: 1320 nM | GI50 [47]: 539 nM | TGI [47]: 1920 nM | GI50 [48]: 1120 nM | TGI [48]: 2860 nM | GI50 [49]: 821 nM | TGI [49]: 2970 nM | GI50 [50]: 314 nM | TGI [50]: 1070 nM | GI50 [51]: 182 nM | TGI [51]: 350 nM | GI50 [52]: 541 nM | TGI [52]: 1950 nM | GI50 [53]: 1600 nM | TGI [53]: 5360 nM | GI50 [54]: 1600 nM | TGI [54]: 3320 nM | GI50 [55]: 427 nM | TGI [55]: 1290 nM | GI50 [56]: 396 nM | TGI [56]: 1410 nM | GI50 [57]: 1300 nM | TGI [57]: 2760 nM
